# Active and inactive are the calls of the source. The rule behind the calls is not given here.
# Assays:
# MCF-10A = assay: Cytotoxicity against human MCF-10A cells assessed as cell viability incubated for 72 hrs by MTT assay; assay type: functional, cell-based
# [1] = system: Panel NCI-60 (60 carcinoma cell lines); assay: Anticancer activity against human NCI-60 cells assessed as cell growth inhibition incubated for 72 hrs by MTT assay; assay type: functional
# MCF7 = assay: Cytotoxicity against human MCF7 cells assessed as cell viability incubated for 72 hrs by MTT assay; assay type: functional, cell-based
# HepG2 [2] = assay: Cytotoxicity against human HepG2 cells assessed as cell viability incubated for 72 hrs by MTT assay; assay type: functional, cell-based
# HepG2 [3] = assay: Downregulation of c-Myc level in human HepG2 cells; assay type: functional, cell-based
# HepG2 [4] = assay: Inhibition of cell invasion in human HepG2 cells assessed as reduction in MMP-2 level at 2.5 uM after 8 hrs by densitometric analysis; assay type: functional; set-up: scale not given: the % may be the effect or the level left
# SAOS-2 = assay: Cytotoxicity against human SAOS-2 cells overexpressing GLS-1; assay type: functional, cell-based
# HepG2 [5] = assay: Inhibition of cell invasion in human HepG2 cells assessed as reduction in MMP-9 level at 2.5 uM after 8 hrs by densitometric analysis; assay type: functional; set-up: scale not given: the % may be the effect or the level left
# A-375 = assay: Cytotoxicity against human A-375 cells overexpressing GLS-1; assay type: functional, cell-based
# [6] = molecular target: T1, Glutaminase kidney isoform, mitochondrial (Homo sapiens, UniProt O94925); assay: Inhibition of human recombinant GLS-1 by measuring glutamate production incubated for 1 hr by fluorescence based multimode plate reader method
# T1 sequence (O94925 whole entry): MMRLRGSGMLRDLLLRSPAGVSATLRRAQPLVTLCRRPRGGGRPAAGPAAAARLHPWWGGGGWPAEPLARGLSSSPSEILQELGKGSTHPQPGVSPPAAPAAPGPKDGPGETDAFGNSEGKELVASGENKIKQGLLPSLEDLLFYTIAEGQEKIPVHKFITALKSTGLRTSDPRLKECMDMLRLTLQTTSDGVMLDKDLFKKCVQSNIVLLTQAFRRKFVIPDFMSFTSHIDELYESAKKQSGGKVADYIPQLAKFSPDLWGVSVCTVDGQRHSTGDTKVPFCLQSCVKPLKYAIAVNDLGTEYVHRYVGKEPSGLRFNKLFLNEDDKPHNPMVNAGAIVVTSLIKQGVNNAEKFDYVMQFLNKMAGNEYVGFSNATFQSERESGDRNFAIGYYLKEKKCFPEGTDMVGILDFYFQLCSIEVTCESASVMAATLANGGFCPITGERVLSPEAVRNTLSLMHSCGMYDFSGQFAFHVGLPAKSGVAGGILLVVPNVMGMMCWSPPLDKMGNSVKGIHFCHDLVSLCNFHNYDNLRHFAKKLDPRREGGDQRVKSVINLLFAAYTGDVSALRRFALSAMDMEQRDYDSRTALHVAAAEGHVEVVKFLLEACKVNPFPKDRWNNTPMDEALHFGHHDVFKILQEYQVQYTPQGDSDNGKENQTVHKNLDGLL
# HepG2 [7] = assay: Downregulation of polyamine pathway in human HepG2 cells assessed as increase in intracellular ROS production; assay type: functional, cell-based
# HepG2 [8] = assay: Inhibition of cell invasion in human HepG2 cells assessed as reduction in MMP-2 level at 2.5 uM after 72 hrs by densitometric analysis; assay type: functional; set-up: scale not given: the % may be the effect or the level left
# HepG2 [9] = assay: Inhibition of cell invasion in human HepG2 cells assessed as reduction in MMP-9 level at 2.5 uM after 72 hrs by densitometric analysis; assay type: functional; set-up: scale not given: the % may be the effect or the level left
# MIA PaCa-2 = assay: Cytotoxicity against human MIA PaCa-2 cells overexpressing GLS-1; assay type: functional, cell-based
# HepG2 [10] = assay: Cytotoxicity against human HepG2 cells assessed as cell viability incubated for 72 hrs in presence of alpha-ketoglutarate by MTT assay; assay type: functional, cell-based; conditions: HepG2, 72 h
# HepG2 [11] = assay: Inhibition of cell migration in human HepG2 cells assessed as reduction in wound closure at 1.5 uM measured after 24 to 48 hrs by wound healing assay based contrat-phase microscopic analysis; assay type: functional; conditions: time 24-48 hrs
# HepG2 [12] = assay: Downregulation of spermidine level in human HepG2 cells; assay type: functional, cell-based
# HepG2 [13] = assay: Induction of cell cycle arrest in human HepG2 cells assessed as decrease in cyclin-B1 expression at 1.5 uM measured after 72 hrs by Western blotting analysis relative to control; assay type: functional; set-up: scale not given: the % may be the effect or the level left
# HepG2 [14] = assay: Anticlonogenic activity against human HepG2 cells assessed as reduction of colony formation at 0.5 uM incubated for 14 days by crystal violet staining method; assay type: functional; set-up: scale not given: the % may be the effect or the level left; conditions: time 14 day
# [15] = Cytotoxicity against human U-87 MG cells overexpressing GLS-1; assay type: functional, cell-based, U-87MG ATCC
# HepG2 [16] = assay: Induction of cell cycle arrest in human HepG2 cells assessed as decrease in cyclin-B1 expression at 1.5 uM measured after 8 to 24 hrs by Western blotting analysis relative to control; assay type: functional; set-up: scale not given: the % may be the effect or the level left; conditions: time 8-24 hrs
# [17] = molecular target: T2, Glutaminase liver isoform, mitochondrial (Homo sapiens, UniProt Q9UI32); assay: Inhibition of human recombinant GLS-2 by measuring glutamate production incubated for 1 hr by fluorescence based multimode plate reader method
# T2 sequence (Q9UI32 whole entry): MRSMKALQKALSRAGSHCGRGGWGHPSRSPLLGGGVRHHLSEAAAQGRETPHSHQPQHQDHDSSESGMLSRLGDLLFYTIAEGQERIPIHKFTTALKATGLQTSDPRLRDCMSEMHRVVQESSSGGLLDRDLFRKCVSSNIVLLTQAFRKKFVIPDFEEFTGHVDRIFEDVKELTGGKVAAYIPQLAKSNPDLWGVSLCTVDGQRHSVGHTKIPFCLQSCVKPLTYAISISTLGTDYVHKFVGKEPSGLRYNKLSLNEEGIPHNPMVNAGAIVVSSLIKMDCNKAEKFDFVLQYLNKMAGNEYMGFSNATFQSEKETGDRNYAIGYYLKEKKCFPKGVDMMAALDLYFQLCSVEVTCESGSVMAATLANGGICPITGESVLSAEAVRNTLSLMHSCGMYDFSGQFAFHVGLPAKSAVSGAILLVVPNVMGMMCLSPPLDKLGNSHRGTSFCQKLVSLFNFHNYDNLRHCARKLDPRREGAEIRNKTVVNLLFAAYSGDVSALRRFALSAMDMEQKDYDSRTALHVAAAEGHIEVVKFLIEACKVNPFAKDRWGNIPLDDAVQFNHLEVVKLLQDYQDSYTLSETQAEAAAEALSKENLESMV
# HepG2 [18] = assay: Upregulation of stearoyl-carnitine level in human HepG2 cells; assay type: functional, cell-based
# A549 = assay: Cytotoxicity against human A549 cells overexpressing GLS-1; assay type: functional, cell-based
# HepG2 [19] = assay: Downregulation of GSH level in human HepG2 cells; assay type: functional, cell-based
compound,measurement,setting,value
Fc1ccc2c(c1)c(-c1nc(-c3c[nH]c4ncccc34)cs1)cn2CCCN1CCOCC1,Activity,MCF-10A,Active
Cn1cc(-c2csc(-c3cn(CCCCN4CCCCC4)c4ccc(F)cc34)n2)c2cccnc21,GI50,[1]; read-out: GI50,1.46 µM
same,GI50,[1]; read-out: pGI50 (converted),16.2 µM
COc1ccc2c(c1)c(-c1nc(-c3c[nH]c4ncccc34)cs1)cn2CCCCN1CCCCC1,GI50,[1]; read-out: GI50,1.18 µM
same,GI50,[1]; read-out: pGI50 (converted),1.95 µM
COc1ccc2c(c1)c(-c1nc(-c3c[nH]c4ncccc34)cs1)cn2CCCN1CCCCC1,GI50,[1]; read-out: GI50,1.19 µM
same,GI50,[1]; read-out: pGI50 (converted),3.31 µM
same,Activity,MCF-10A,Active
same,Activity,MCF7,Active
Cn1cc(-c2csc(-c3cn(CCO)c4ccc(Br)cc34)n2)c2cccnc21,Activity,MCF7,Active
same,Activity,HepG2 [2],Active
COc1ccc2c(c1)c(-c1nc(-c3cn(C)c4ncccc34)cs1)cn2CCCCN1CCCCC1,GI50,[1]; read-out: GI50,1.07 µM
same,GI50,[1]; read-out: pGI50 (converted),1.91 µM
same,Activity,MCF7,Active
same,Activity,HepG2 [2],Active
COc1ccc2c(c1)c(-c1nc(-c3c[nH]c4ncccc34)cs1)cn2CCCN1CCOCC1,GI50,[1]; read-out: GI50,0.48 µM
same,GI50,[1]; read-out: pGI50 (converted),4.07 µM
same,Activity,MCF7,Active
same,Activity,HepG2 [2],Active
Cn1cc(-c2csc(-c3cn(CCCCN4CCOCC4)c4ccc(F)cc34)n2)c2cccnc21,Activity,MCF-10A,Active
Cn1cc(-c2csc(-c3cn(CCO)c4ccccc34)n2)c2cccnc21,Activity,MCF7,Active
same,Activity,HepG2 [2],Active
Fc1ccc2c(c1)c(-c1nc(-c3c[nH]c4ncccc34)cs1)cn2CCCN1CCCCC1,GI50,[1]; read-out: GI50,1.28 µM
same,GI50,[1]; read-out: pGI50 (converted),3.72 µM
same,Activity,MCF-10A,Active
same,Activity,MCF7,Active
Cn1cc(-c2csc(-c3cn(CCCCN4CCOCC4)c4ccccc34)n2)c2cccnc21,Activity,MCF-10A,Active
COc1ccc2c(c1)c(-c1nc(-c3cn(C)c4ncccc34)cs1)cn2CCN1CCCCC1,Activity,MCF-10A,Active
same,Activity,MCF7,Active
Cn1cc(-c2csc(-c3cn(CCN4CCOCC4)c4ccc(F)cc34)n2)c2cccnc21,GI50,[1]; read-out: GI50,1.52 µM
same,GI50,[1]; read-out: pGI50 (converted),5.62 µM
same,Activity,MCF7,Active
same,Activity,HepG2 [2],Active
OCCn1cc(-c2nc(-c3c[nH]c4ncccc34)cs2)c2cc(Br)ccc21,Activity,MCF7,Active
same,Activity,HepG2 [2],Active
COc1ccc2c(c1)c(-c1nc(-c3c[nH]c4ncccc34)cs1)cn2CCO,Activity,MCF7,Active
same,Activity,HepG2 [2],Active
COc1ccc2c(c1)c(-c1nc(-c3c[nH]c4ncccc34)cs1)cn2CCN1CCCCC1,Activity,MCF7,Active
same,Activity,HepG2 [2],Active
Br.Fc1ccc2c(c1)c(-c1nc(-c3c[nH]c4ncccc34)cs1)cn2CCCCN1CCOCC1,Activity,HepG2 [3],Active
same,Activity,HepG2 [4],20%
same,EC50,MCF-10A,29.1 µM
same,EC50,"MCF7; MCF7, 72 h",23.1 µM
same,EC50,SAOS-2,4.85 µM
same,Activity,HepG2 [5],50%
same,EC50,A-375,5.84 µM
same,EC50,"HepG2 [2]; HepG2, 72 h",3.25 µM
same,EC50,[6],3.96 µM
same,Activity,HepG2 [7],Active
same,Activity,HepG2 [8],80%
same,Activity,HepG2 [9],75%
same,EC50,MIA PaCa-2,6.98 µM
same,EC50,HepG2 [10],27.2 µM
same,Activity,HepG2 [11],Active
same,Activity,HepG2 [12],Active
same,Activity,HepG2 [13],75%
same,Activity,HepG2 [14],<=70%
same,EC50,[15],3.63 µM
same,Activity,HepG2 [16],50%
same,EC50,[17],12.9 µM
same,Activity,HepG2 [18],Active
same,EC50,A549,8.47 µM
same,Activity,HepG2 [19],Active
c1cnc2[nH]cc(-c3csc(-c4cn(CCCN5CCCCC5)c5ccccc45)n3)c2c1,GI50,[1]; read-out: GI50,1.1 µM
same,GI50,[1]; read-out: pGI50 (converted),2.34 µM
same,Activity,MCF-10A,Active
same,Activity,MCF7,Active
COc1ccc2c(c1)c(-c1nc(-c3cn(C)c4ncccc34)cs1)cn2CCCCN1CCOCC1,GI50,[1]; read-out: GI50,0.02 µM
same,GI50,[1]; read-out: pGI50 (converted),12 µM
same,Activity,MCF-10A,Active
COc1ccc2c(c1)c(-c1nc(-c3c[nH]c4ncccc34)cs1)cn2CCCCN1CCOCC1,GI50,[1]; read-out: GI50,0.22 µM
same,GI50,[1]; read-out: pGI50 (converted),5.25 µM
c1cnc2[nH]cc(-c3csc(-c4cn(CCCCN5CCCCC5)c5ccccc45)n3)c2c1,Activity,MCF7,Active
same,Activity,HepG2 [2],Active

# Source: ChEMBL document CHEMBL5120786, “Metabolomics-assisted discovery of a new anticancer GLS-1 inhibitor chemotype from a nortopsentin-inspired library: From phenotype screening to target identification” (Eur J Med Chem, 2022)
